This note sets out measurements from patent publication US12454530B2, “Amido cyclohexane acid derivatives as LPA receptor inhibitors” (CHIESI FARMACEUTICI S.P.A., priority 2020, dated 2025).

pIC50: −log10 of the molar value.

The target in data set [1] is BSEP (Homo sapiens (Human), UniProt O95342). Kind of data set: BSEP inhibition: biliary clearance of Taurocolic Acid in sandwich-cultured human hepatocytes. It is filed as in vitro ADME. Particulars: sandwich-cultured cryopreserved human hepatocytes, probe Taurocolic Acid (TCA); 50 μM test compound, 10 μM TCA, human hepatocytes sandwich configuration. The protocol: BSEP inhibition was evaluated using human hepatocytes cultured between two layer of collagen (sandwich configuration). In this culture condition, hepatocytes express relevant transporters including BSEP and retain the bile canalicular structure. An inhibition of the biliary clearance of Taurocolic Acid (TCA), a known BSEP substrate, was used to assess BSEP interaction.
Chain of BSEP (O95342 whole entry): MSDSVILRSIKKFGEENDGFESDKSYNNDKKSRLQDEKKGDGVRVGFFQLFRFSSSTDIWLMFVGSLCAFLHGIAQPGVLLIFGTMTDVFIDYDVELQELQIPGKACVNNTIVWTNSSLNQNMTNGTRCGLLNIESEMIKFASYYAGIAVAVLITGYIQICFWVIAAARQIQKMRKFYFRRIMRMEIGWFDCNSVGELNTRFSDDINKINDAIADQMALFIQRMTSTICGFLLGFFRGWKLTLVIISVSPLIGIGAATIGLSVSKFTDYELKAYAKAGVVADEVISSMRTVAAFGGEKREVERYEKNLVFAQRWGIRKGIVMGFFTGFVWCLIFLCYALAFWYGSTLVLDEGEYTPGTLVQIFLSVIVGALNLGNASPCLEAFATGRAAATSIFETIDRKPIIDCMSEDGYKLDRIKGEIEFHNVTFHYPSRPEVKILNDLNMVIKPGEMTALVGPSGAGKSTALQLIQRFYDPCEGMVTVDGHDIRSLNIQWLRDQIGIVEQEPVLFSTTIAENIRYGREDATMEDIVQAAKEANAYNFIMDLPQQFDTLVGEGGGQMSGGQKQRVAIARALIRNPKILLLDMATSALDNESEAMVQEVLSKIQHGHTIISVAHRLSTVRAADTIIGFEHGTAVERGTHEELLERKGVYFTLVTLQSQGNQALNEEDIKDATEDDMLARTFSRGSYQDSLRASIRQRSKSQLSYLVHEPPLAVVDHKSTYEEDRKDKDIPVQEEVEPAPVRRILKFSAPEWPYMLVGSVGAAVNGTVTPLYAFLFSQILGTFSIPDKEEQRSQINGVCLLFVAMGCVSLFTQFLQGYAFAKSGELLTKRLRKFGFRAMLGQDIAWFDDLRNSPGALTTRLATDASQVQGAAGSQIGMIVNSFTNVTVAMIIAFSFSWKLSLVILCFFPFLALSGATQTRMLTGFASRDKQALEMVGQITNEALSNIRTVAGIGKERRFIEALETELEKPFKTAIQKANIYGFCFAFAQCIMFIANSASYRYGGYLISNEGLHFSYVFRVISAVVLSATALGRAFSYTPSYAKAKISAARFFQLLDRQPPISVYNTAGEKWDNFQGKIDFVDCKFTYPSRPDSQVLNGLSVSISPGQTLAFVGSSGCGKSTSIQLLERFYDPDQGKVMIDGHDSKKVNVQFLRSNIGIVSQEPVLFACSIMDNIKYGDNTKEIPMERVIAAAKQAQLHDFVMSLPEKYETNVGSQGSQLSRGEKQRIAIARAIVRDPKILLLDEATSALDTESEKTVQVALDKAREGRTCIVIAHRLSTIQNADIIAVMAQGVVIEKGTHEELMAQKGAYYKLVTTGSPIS
BSEP inhibition was evaluated using cryopreserved human hepatocytes (Plateable Cryopreserved Human Hepatocytes, BIOIVT) cultured for 5 day between two layer of collagen (sandwich configuration). In this culture condition, hepatocytes express relevant transporters including BSEP and retain the bile canalicular structure.
On day 5 of culture, hepatic cells are ready for the assay and the biliary clearance of Taurocolic Acid (TCA), a known BSEP substrate, can be estimated in presence and in absence of compound of interest.
The sample solution was prepared dissolving test compound and TCA in DMSO and then diluted in the Assay Buffer: Hank's Balance Salt Solution (HBSS+) warmed at 37° C. before use, to give the 10 μM TCA working solution with and without 50 μM of test compound. Hepatocytes were incubated for 10 minutes with these working solutions allowing TCA to be excreted into bile. At the end of incubation, the working solution was aspirated, and the content of the bile was collected through the addition of HBSS Modified without Ca2+/Mg2+(HBSS−). The presence of Ca2+ in the buffer is required to maintain the integrity of the tight junctions, the diffusional barrier between the canalicular lumen and extracellular space. Instead, incubation of cells in Ca2+-free buffer disrupts the tight junctions and opens the bile canalicular structures, allowing the bile content to be released and collect for HPLC-MS/MS analysis.
The in vitro biliary clearance of TCA incubated with and without test compounds is calculated according to the following formula:
where • Acc. Bile=(TCA amount in HBSS (−) buffer samples (pmol/mg protein)*Volume of each samples (mL))/Protein content per well (mg) • AUC=Incubation time (min)*T0 Concentration. T0 concentration is the initial TCA concentration in the medium.
The inhibition of BSEP was calculated as percentage of inhibition of TCA biliary clearance in presence of compound of interest, according to the following formula: BSEP inhibition %=100−(TCA ClBil with test compound*100)
TCA ClBil without test compound.

The target in data set [2] is human recombinant LPA1 expressed in CHO cells (Homo sapiens (Human), UniProt Q92633). In words: LPA1 antagonist FLIPR calcium assay in CHO-hLPA1 cells. Particulars: range of activity; CHO-hLPA1, LPA EC80, Ca2+ mobilization; read-out: LPA1 IC50. Type of data set: cell-based. The protocol: The effectiveness of compounds of the present invention as LPA1 antagonists can be determined at the human recombinant LPA1 expressed in CHO cells, using a FLIPR assay in 384 well format.
Chain of human recombinant LPA1 expressed in CHO cells (Q92633 whole entry): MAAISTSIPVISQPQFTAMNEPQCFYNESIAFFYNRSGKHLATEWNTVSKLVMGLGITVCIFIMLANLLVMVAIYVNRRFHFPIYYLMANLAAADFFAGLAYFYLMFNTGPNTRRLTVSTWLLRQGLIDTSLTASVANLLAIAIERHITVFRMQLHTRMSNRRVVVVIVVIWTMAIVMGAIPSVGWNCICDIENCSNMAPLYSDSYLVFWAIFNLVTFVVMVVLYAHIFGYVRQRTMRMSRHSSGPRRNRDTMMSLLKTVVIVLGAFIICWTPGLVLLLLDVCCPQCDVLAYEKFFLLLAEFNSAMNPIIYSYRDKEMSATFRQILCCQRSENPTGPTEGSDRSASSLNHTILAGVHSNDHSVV
CHO-hLPA1 cell lines are cultured in a humidified incubator at 5% CO2 in DMEM/F-12 (1:1) MIXTURE with 2 mM Glutamax, supplemented with 10% of Foetal Bovine Serum, 1 mM Sodium Pyruvate, 11 mM Hepes and 1× Penicillin/Streptomycin. […] Serial dilutions (1:3 or 1:4, 11 points CRC) of compounds are performed in 100% DMSO at 200× the final concentration. […] The final concentration of DMSO in the assay will be 0.5% in each well. Medium is removed by aspiration and cells are then incubated with 30 μl of a loading solution containing 5 μM of the cytoplasmic Ca2+ indicator Cal-520 AM in Assay Buffer containing 2.5 mM probenecid for 30 min at 37° C. incubator (cell loading). The loaded cell plates are transferred into the FLIPR instrument and calcium responses are monitored during the on-line addition protocols. For testing of compounds, after the cell loading, 10 μl/well of 4× antagonists' solution was added onto the cells. After 30 min pre-incubation (at 37° C.), 10 μl/well of 5× concentrated LPA EC80 was added and Ca2+ mobilization responses was followed during the on-line addition protocol. Intracellular peak fluorescence values subtracted by baseline fluorescence are exported and analysed to determine IC50 values, respectively. The calcium response is expressed as percentage of the maximal inhibition of the EC80 agonist response.
The raw data (peak height expressed as relative fluorescence units) are normalized and transformed into “percent of inhibition”. Curve fitting and pIC50 (−LogIC50) estimations are carried out using a four-parameter logistic model using XLfit Software.
In general terms: Calcium flux is commonly read through the fluorescence of an indicator in the cells.

Data set [3] can be described thus: Permeability on Caco-2 cells monolayers. It is filed as in vitro ADME. The note with it: human, with Elacridar 10 µM (PgP inhibitor), Papp A>B with PgP inhibitor Elacridar, 10 μM compound, read-out: Passive Permeability. The protocol:
Even more advantageously, the compounds of formula (I) of the present invention are also endowed with a good permeability profile that, in its turn, can ensure a suitable bioavailability for an oral administration. The permeability was assessed in human Caco 2 cell line, an in vitro model that mimic human gastrointestinal barrier and so useful to predic oral absorption.
The permeability of the compounds of the present invention was evaluated performing the assay on Caco-2 cells monolayers (human colon adenocarcinoma immortalized cell) by measuring the transport of compound (absorption and secretion) in both directions: apical to basolateral direction (A>B) and basolateral to apical (B>A) with and without PgP inhibitor (Elacridar).
The cells, purched from ReadyCell in 96 well format (Cod. KRECE-CCR50), were cultured by the supplier for 21 day on transwell supports in DMEM 1 g/L glucose culture medium supplemented with Fetal Bovin Sierum (10%), Glutamine 200 mM (1%) and Penicillin 10000 U/ml-10 mg/ml Streptomycin (1%).
On day 21 of colture, cell monolayers integrity was verified by measuring the trans-epithelial electric resistance (TEER) using the EVOM equipment (Endohm, WPI, Germany) and studying the apparent permeability (Papp) of reference compounds (Sulpiride and Metoprolol). Furthermore, as a control, the Talinolol 10 uM (Pgp efflux substrate) with and without Elacridar in both directions was used.
The sample solution was prepared dissolving test compound in DMSO at the concentration of 10 mM and then diluted in the Assay Buffer (Hank's Balance Salt Solution) warmed at 37° C. before use, to give the 10 μM Compound working solution with and without 10 μM Elacridar. These working solutions were added to donor compartment (apical for A>B direction and basolateral for B>A direction) and Assay Buffer (Hank's Balance Salt Solution) to the receiver compartment (basolateral for A>B direction and apical for B>A direction). The plate was incubated at 37° C. for 120 min, all incubation were conducted in triplicates. At the end of incubation, samples from donor and receiver compartments were collected for HPLC-MS/MS analyses.
The permeability coefficients (Papp) in both directions: apical to basolateral (A>B) and basolateral to apical (B>A) with and without PgP inhibitor (Elacridar) was calculated in nm/sec, using the following equation:
[formula] • where: • Cr=measured concentration in the receiver well at the time t (expressed as IS ratio) • Vr=volume of the receiver well (ml) • t=time (sec) • A=membrane surface area (cm^2) • C0=initial donor concentration • Passive Papp is considered Papp A>B with PgP inhibitor Elacridar.
A general note: Passage across Caco-2 layers is used to estimate intestinal permeability.

What is called inhibition is how much of the control response was suppressed. Higher therefore signals a strong effect. The term pIC50 denotes −log10 of the IC50, conventionally taken in molar units. `Cc1nc(-c2cnn(C)c2NC(=O)O[C@H](C)c2ccccc2F)ccc1NC(=O)[C@H]1CCCC[C@@H]1C(=O)O` [Example 50, (1S,2S)-2-((6-(5-((((R)-1-(2-fluorophenyl)ethoxy)carbonyl)amino)-1-methyl-1H-pyrazol-4-yl)-2-methylpyridin-3-yl)carbamoyl)cyclohexane-1-carboxylic acid] had an inhibition at 10 min, 50 μM in data set [1] of at most 50%. Moreover, the pIC50 in data set [2] was 6.60 to 7.30. Further, the Papp at 120 min, 10 µM in data set [3] was at least 1.5 ×10⁻⁶ cm/s.

`Cc1nc(-c2onc(C)c2NC(=O)O[C@H](C)c2ccccc2)ccc1NC(=O)[C@H]1CCCC[C@@H]1C(=O)O` [Example 27, (1S,2S)-2-((2-methyl-6-(3-methyl-4-((((R)-1-phenylethoxy)carbonyl)amino)isoxazol-5-yl)pyridin-3-yl)carbamoy1)cyclohexane-1-carboxylic acid]: the inhibition at 10 min, 50 μM in data set [1] is at most 50%. The Papp at 120 min, 10 µM in data set [3] was at least 1.5 ×10⁻⁶ cm/s.

The compound `Cc1nc(-c2onc(C)c2NC(=O)O[C@H](C)c2ccccc2Cl)ccc1NC(=O)[C@H]1CCCC[C@@H]1C(=O)O` [Example 1, (1S,2S)-2-((6-(4-((((R)-1-(2-chlorophenyl)ethoxy)carbonyl)amino)-3-methylisoxazol-5-yl)-2-methylpyridin-3-yl)carbamoyl)cyclohexane-1-carboxylic acid] gave an inhibition at 10 min, 50 μM in data set [1] of at most 50%. Also, the Papp at 120 min, 10 µM in data set [3] is at least 1.5 ×10⁻⁶ cm/s.

With `Cc1noc(-c2ccc(NC(=O)[C@H]3CCCC[C@@H]3C(=O)O)cc2)c1NC(=O)O[C@H](C)c1ccccc1Cl` [comparative Example A, (1S,2S)-2-({4-[3-methyl-4-({[(1R)-1-(2-chlorophenyl)ethoxy]carbonyl}amino)-1,2-oxazol-5-yl]phenyl}carbamoyl)cyclohexane-1-carboxylic acid, reference compound], in data set [1], the inhibition at 10 min, 50 μM was over 70%. In addition, the Papp at 120 min, 10 µM in data set [3] was under 1.5 ×10⁻⁶ cm/s.

The compound `Cc1ccccc1[C@@H](C)OC(=O)Nc1c(C)noc1-c1ccc(NC(=O)[C@H]2CCCC[C@@H]2C(=O)O)c(C)n1` [Example 32, (1S,2S)-2-((2-methyl-6-(3-methyl-4-((((R)-1-(o-toly1)ethoxy)carbonyl)amino)isoxazol-5-yl)pyridin-3-yl)carbamoyl)cyclohexane-1-carboxylic acid] returned an inhibition at 10 min, 50 μM in data set [1] of at most 50%. In addition, in data set [3], the Papp at 120 min, 10 µM was at least 1.5 ×10⁻⁶ cm/s.

The compound `CCC[C@@H](C)OC(=O)Nc1c(C)noc1-c1ccc(NC(=O)[C@H]2CCCC[C@@H]2C(=O)O)c(C)n1` [Example 49, (1S,2S)-2-((2-methyl-6-(3-methyl-4-(((((R)-pentan-2-yl)oxy)carbonyl)amino)isoxazol-5-yl)pyridin-3-yl)carbamoyl)cyclohexane-1-carboxylic acid] had an inhibition at 10 min, 50 μM in data set [1] of at most 50%. Moreover, in data set [3], the Papp at 120 min, 10 µM is at least 1.5 ×10⁻⁶ cm/s.

Consider `Cc1nc(-c2onc(C)c2NC(=O)O[C@H](C)c2ccccc2Br)ccc1NC(=O)[C@H]1CCCC[C@@H]1C(=O)O` [Example 28, (1S,2S)-2-((6-(4-((((R)-1-(2-bromophenyl)ethoxy)carbonyl)amino)-3-methylisoxazol-5-yl)-2-methylpyridin-3-yl)carbamoyl)cyclohexane-1-carboxylic acid], for which the pIC50 in data set [2] is over 7.30. Moreover, the Papp at 120 min, 10 µM in data set [3] was at least 1.5 ×10⁻⁶ cm/s.

As to `Cc1nc(-c2onc(C)c2NC(=O)O[C@H](C)c2ccccc2)ccc1NC(=O)C1CCCCC1C(=O)O` (stereo partly drawn) [Example 39, Cis-2-((2-methyl-6-(3-methyl-4-((((R)-1-phenylethoxy)carbonyl)amino)isoxazol-5-yl)pyridin-3-yl)carbamoyl)cyclohexane-1-carboxylic acid], the inhibition at 10 min, 50 μM in data set [1] is at most 50%. Also, the Papp at 120 min, 10 µM in data set [3] was at least 1.5 ×10⁻⁶ cm/s.

`Cc1nc(-c2cnn(C)c2NC(=O)O[C@H](C)c2ccccc2Cl)ccc1NC(=O)[C@H]1CCCC[C@@H]1C(=O)O` (stereo in doubt) [Example 2, (1S,2S)-2-((6-(5-((((R)-1-(2-chlorophenyl)ethoxy)carbony1)amino)-1-methyl-1H-pyrazol-4-yl)-2-methylpyridin-3-y1)carbamoyl)cyclohexane-1-carboxylic acid] gave an inhibition at 10 min, 50 μM in data set [1] of at most 50%. Also, the Papp at 120 min, 10 µM in data set [3] is at least 1.5 ×10⁻⁶ cm/s.

Consider `Cc1nc(-c2onc(C)c2NC(=O)O[C@H](C)c2ccccc2Cl)ccc1NC(=O)[C@@H]1CCCC[C@H]1C(=O)O` [Example 12, (1R,2R)-2-((6-(4-((((R)-1-(2-chlorophenyl)ethoxy)carbonyl)amino)-3-methylisoxazol-5-yl)-2-methylpyridin-3-yl)carbamoyl)cyclohexane-1-carboxylic acid], for which the inhibition at 10 min, 50 μM in data set [1] was at most 50%. Moreover, the Papp at 120 min, 10 µM in data set [3] was at least 1.5 ×10⁻⁶ cm/s.

With `Cc1nc(-c2onc(C)c2NC(=O)O[C@H](C)c2ccccc2Cl)ccc1NC(=O)C1CCCCC1C(=O)O` (single isomer, unassigned) [Example 13], the inhibition at 10 min, 50 μM in data set [1] is at most 50%. For the same compound, the Papp at 120 min, 10 µM in data set [3] was at least 1.5 ×10⁻⁶ cm/s.

`Cc1noc(-c2ccc(NC(=O)[C@H]3CCCC[C@@H]3C(=O)O)cn2)c1NC(=O)O[C@H](C)c1ccccc1Cl` [Example 16, (1S,2S)-2-((6-(4-((((R)-1-(2-chlorophenyl)ethoxy)carbonyl)amino)-3-methylisoxazol-5-yl)pyridin-3-yl)carbamoyl)cyclohexane-1-carboxylic acid] gave an inhibition at 10 min, 50 μM in data set [1] of at most 50%. Moreover, the Papp at 120 min, 10 µM in data set [3] is at least 1.5 ×10⁻⁶ cm/s.
